This is an account of results in patent US6809065B2, “Herbicide containing substituted pyrazole derivative as active ingredient” (SDS Biotech K.K., priority 2001, dated 2004).

Structures are written as SMILES.

In data set [1] the test system is Chenopodium album. Description: Upland field foliage treatment (Test Example 1). The data set is classed as in vivo. The note with it: foliage treatment 14th day after sowing, wettable powder, 1 kg active ingredient per hectare, evaluated 21st day after application. Summed up: (§1)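 Scored on an index 21 days after treatment: a high value on weeds means more herbicidal effect, and a low value on crops means more crop safety. Treatment was a foliar spray of water-diluted wettable powder at 1 kg a.i./ha, applied to plants 14 days after sowing in upland soil.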

Data set [2] relates to Digitaria adscendens. In words: Upland field foliage treatment (Test Example 1). The data set is classed as in vivo. The note with it: foliage treatment 14th day after sowing, wettable powder, 1 kg active ingredient per hectare, evaluated 21st day after application. Summed up: as §1
Data set [3] deals with Setaria viridis. Description: Upland field foliage treatment (Test Example 1). Conditions: foliage treatment 14th day after sowing, wettable powder, 1 kg active ingredient per hectare, evaluated 21st day after application. In kind it is in vivo. Summed up: as §1
The subject of data set [4] is Stellaria media. Description: Upland field foliage treatment (Test Example 1). The data set is classed as in vivo. Conditions: foliage treatment 14th day after sowing, wettable powder, 1 kg active ingredient per hectare, evaluated 21st day after application. The method in brief:
as §1

Data set [5] concerns soybean (Glycine max). In words: Upland field foliage treatment (Test Example 1), crop. The data set is classed as in vivo. Conditions: foliage treatment 14th day after sowing, 1 kg active ingredient per hectare, evaluated 21st day, lower index = higher safety. Summed up: as §1
In data set [6] the test system is wheat (Triticum aestivum). The data set is described as above. The data set is classed as in vivo. Conditions: foliage treatment 14th day after sowing, 1 kg active ingredient per hectare, evaluated 21st day, lower index = higher safety. Summed up:
as §1

Data set [7] concerns Chenopodium album. In words: Upland soil treatment (Test Example 2). The data set is classed as in vivo. The note with it: soil surface treatment next day after sowing, wettable powder, 1 kg active ingredient per hectare, evaluated 21st day after application. Summed up: (§2)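 Scores were assigned 21 days after treatment on an index where higher means stronger weed control and, for crops, lower means greater safety. A wettable-powder formulation at 1 kg a.i./ha was applied to the soil surface one day after sowing seeds under about 1 cm of upland soil.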

Data set [8] relates to Digitaria adscendens. Description: Upland soil treatment (Test Example 2). In kind it is in vivo. The note with it: soil surface treatment next day after sowing, wettable powder, 1 kg active ingredient per hectare, evaluated 21st day after application. Summed up:
as §2

The test system of data set [9] is Setaria viridis. In words: Upland soil treatment (Test Example 2). The data set is classed as in vivo. The note with it: soil surface treatment next day after sowing, wettable powder, 1 kg active ingredient per hectare, evaluated 21st day after application. Summed up: as §2
The subject of data set [10] is Stellaria media. In words: Upland soil treatment (Test Example 2). In kind it is in vivo. The note with it: soil surface treatment next day after sowing, wettable powder, 1 kg active ingredient per hectare, evaluated 21st day after application. Summed up: as §2
Data set [11] concerns soybean (Glycine max). Description: Upland soil treatment (Test Example 2), crop. Conditions: soil surface treatment next day after sowing, 1 kg active ingredient per hectare, evaluated 21st day, lower index = higher safety. In kind it is in vivo. The method in brief:
as §2

Data set [12] concerns wheat (Triticum aestivum). In words: Upland soil treatment (Test Example 2), crop. The note with it: soil surface treatment next day after sowing, 1 kg active ingredient per hectare, evaluated 21st day, lower index = higher safety. The data set is classed as in vivo. Summed up: as §2
A further data set deals with Echinochloa spp. In words: Paddy field treatment (Test Example 3). The data set is classed as in vivo, Echinochloa crusgalli. Conditions: paddy pot, submerged 4 cm, dropped on water surface 10th day after transplantation, 1 kg active ingredient per hectare, evaluated 21st day. The method in brief: (§3)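 Index scoring of herbicidal effect and rice safety 21 days after treatment. The wettable powder, dosed at 1 kg a.i./ha, was dripped onto flooded pots (4 cm water) 10 days after transplanting two-leaf Koshihikari rice. Weed seeds had been sown into the puddled soil.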

The test system of a further data set is Ammannia multiflora. In words: Paddy field treatment (Test Example 3). In kind it is in vivo. The note with it: paddy pot, submerged 4 cm, dropped on water surface 10th day after transplantation, 1 kg active ingredient per hectare, evaluated 21st day. The method in brief:
as §3

The subject of a further data set is Monochoria vaginalis. Description: Paddy field treatment (Test Example 3). The data set is classed as in vivo. Conditions: paddy pot, submerged 4 cm, dropped on water surface 10th day after transplantation, 1 kg active ingredient per hectare, evaluated 21st day. The method in brief:
as §3

Another data set deals with Scirpus juncoides. Description: Paddy field treatment (Test Example 3). Conditions: paddy pot, submerged 4 cm, dropped on water surface 10th day after transplantation, 1 kg active ingredient per hectare, evaluated 21st day. The data set is classed as in vivo. Summed up: as §3
In data set [13] the test system is rice (Oryza sative, variety: Koshihikari). In words: Paddy field treatment (Test Example 3), crop. The data set is classed as in vivo, Oryza sativa. Conditions: transplanted rice two-leaf period, water surface treatment 10th day after transplantation, 1 kg active ingredient per hectare, evaluated 21st day, lower index = higher safety. Summed up:
as §3

Turning to `COC=C(Cn1nc(-c2cccc(C)c2)c(Cl)c1C)C(=O)OC` [Compound 17], the “Herbicidal activity Chenopodium album” value in the data set with Chenopodium album [1] was 5 (herbicidal effect of not less than 90% by weight); in the data set with Chenopodium album [7], 4 (herbicidal effect of not less than 70% by weight and less than 90% by weight). In addition, the “Herbicidal activity Digitaria adscendens” value with Digitaria adscendens [2] is 4 (herbicidal effect of not less than 70% by weight and less than 90% by weight); in the data set with Digitaria adscendens [8] it was 4 (herbicidal effect of not less than 70% by weight and less than 90% by weight). The “Herbicidal activity Setaria viridis” value in the data set on Setaria viridis [3] was 5 (herbicidal effect of not less than 90% by weight); in the data set on Setaria viridis [9], 4 (herbicidal effect of not less than 70% by weight and less than 90% by weight). In addition, the “Herbicidal activity Stellaria media” value in the data set with Stellaria media [4] was 5 (herbicidal effect of not less than 90% by weight); with Stellaria media [10], 4 (herbicidal effect of not less than 70% by weight and less than 90% by weight). Besides, the “Herbicidal activity Glycine max” value with soybean (Glycine max) [5] was 0 (herbicidal effect of not less than 0% by weight and less than 10% by weight); in the data set on soybean (Glycine max) [11] it was 0 (herbicidal effect of not less than 0% by weight and less than 10% by weight). For the same compound, the “Herbicidal activity Triticum aestivum” value in data set [6] was 0 (herbicidal effect of not less than 0% by weight and less than 10% by weight); in data set [12], 0 (herbicidal effect of not less than 0% by weight and less than 10% by weight). Also, the “Herbicidal activity Echinochloa spp.” value in the data set with Echinochloa spp. is given as 5 (herbicidal effect of not less than 90% by weight). Also, in the data set on Ammannia multiflora, the “Herbicidal activity Ammannia multiflora” value is on record as 5 (herbicidal effect of not less than 90% by weight). The “Herbicidal activity Monochoria vaginalis” value in the data set with Monochoria vaginalis is listed as 5 (herbicidal effect of not less than 90% by weight). For the same compound, the “Herbicidal activity Scirpus juncoides” value with Scirpus juncoides was 4 (herbicidal effect of not less than 70% by weight and less than 90% by weight). The “Herbicidal activity Oryza sativa” value in data set [13] is 0 (herbicidal effect of not less than 0% by weight and less than 10% by weight).

In the case of `COC=C(Cn1nc(-c2cc(Cl)cc(Cl)c2)c(Cl)c1C)C(=O)OC` [Compound 25], the “Herbicidal activity Chenopodium album” value with Chenopodium album [1] is 4 (herbicidal effect of not less than 70% by weight and less than 90% by weight); with Chenopodium album [7], 4 (herbicidal effect of not less than 70% by weight and less than 90% by weight). The “Herbicidal activity Digitaria adscendens” value in the data set with Digitaria adscendens [2] is 4 (herbicidal effect of not less than 70% by weight and less than 90% by weight); in the data set with Digitaria adscendens [8], 4 (herbicidal effect of not less than 70% by weight and less than 90% by weight). In addition, the “Herbicidal activity Setaria viridis” value in the data set with Setaria viridis [3] is 4 (herbicidal effect of not less than 70% by weight and less than 90% by weight); in the data set on Setaria viridis [9], 4 (herbicidal effect of not less than 70% by weight and less than 90% by weight). The “Herbicidal activity Stellaria media” value with Stellaria media [4] was 4 (herbicidal effect of not less than 70% by weight and less than 90% by weight); in the data set with Stellaria media [10], 4 (herbicidal effect of not less than 70% by weight and less than 90% by weight). The “Herbicidal activity Glycine max” value in the data set with soybean (Glycine max) [5] was 0 (herbicidal effect of not less than 0% by weight and less than 10% by weight); in the data set on soybean (Glycine max) [11] it was 0 (herbicidal effect of not less than 0% by weight and less than 10% by weight). The “Herbicidal activity Triticum aestivum” value in data set [6] was 0 (herbicidal effect of not less than 0% by weight and less than 10% by weight); in data set [12], 0 (herbicidal effect of not less than 0% by weight and less than 10% by weight). For the same compound, in the data set with Echinochloa spp., the “Herbicidal activity Echinochloa spp.” value is 3 (herbicidal effect of not less than 50% by weight and less than 70% by weight). In addition, the “Herbicidal activity Ammannia multiflora” value with Ammannia multiflora is 3 (herbicidal effect of not less than 50% by weight and less than 70% by weight). Besides, the “Herbicidal activity Monochoria vaginalis” value in the data set with Monochoria vaginalis was 3 (herbicidal effect of not less than 50% by weight and less than 70% by weight). In addition, the “Herbicidal activity Scirpus juncoides” value in the data set on Scirpus juncoides is 3 (herbicidal effect of not less than 50% by weight and less than 70% by weight). For the same compound, the “Herbicidal activity Oryza sativa” value in [13] was 0 (herbicidal effect of not less than 0% by weight and less than 10% by weight).

As for `COC=C(Cn1nc(-c2ccccc2)c(C)c1Cl)C(=O)OC` [Compound 45], the “Herbicidal activity Chenopodium album” value was 5 (herbicidal effect of not less than 90% by weight) with Chenopodium album [1]; 4 (herbicidal effect of not less than 70% by weight and less than 90% by weight) in the data set on Chenopodium album [7]. Further, the “Herbicidal activity Digitaria adscendens” value in the data set with Digitaria adscendens [2] was 4 (herbicidal effect of not less than 70% by weight and less than 90% by weight); in the data set with Digitaria adscendens [8] it was 4 (herbicidal effect of not less than 70% by weight and less than 90% by weight). The “Herbicidal activity Setaria viridis” value with Setaria viridis [3] is 4 (herbicidal effect of not less than 70% by weight and less than 90% by weight); in the data set on Setaria viridis [9] it was 4 (herbicidal effect of not less than 70% by weight and less than 90% by weight). In addition, the “Herbicidal activity Stellaria media” value with Stellaria media [4] was 5 (herbicidal effect of not less than 90% by weight); in the data set on Stellaria media [10], 4 (herbicidal effect of not less than 70% by weight and less than 90% by weight). Moreover, the “Herbicidal activity Glycine max” value with soybean (Glycine max) [5] is 1 (herbicidal effect of not less than 10% by weight and less than 30% by weight); with soybean (Glycine max) [11], 0 (herbicidal effect of not less than 0% by weight and less than 10% by weight). Also, the “Herbicidal activity Triticum aestivum” value in [6] was 0 (herbicidal effect of not less than 0% by weight and less than 10% by weight); in data set [12], 0 (herbicidal effect of not less than 0% by weight and less than 10% by weight). In addition, in the data set with Echinochloa spp., the “Herbicidal activity Echinochloa spp.” value was 4 (herbicidal effect of not less than 70% by weight and less than 90% by weight). Further, in the data set on Ammannia multiflora, the “Herbicidal activity Ammannia multiflora” value was 4 (herbicidal effect of not less than 70% by weight and less than 90% by weight). In addition, in the data set with Monochoria vaginalis, the “Herbicidal activity Monochoria vaginalis” value is 5 (herbicidal effect of not less than 90% by weight). The “Herbicidal activity Scirpus juncoides” value with Scirpus juncoides is 4 (herbicidal effect of not less than 70% by weight and less than 90% by weight). Further, the “Herbicidal activity Oryza sativa” value in data set [13] was 0 (herbicidal effect of not less than 0% by weight and less than 10% by weight).

As to `COC=C(Cn1nc(-c2ccc(Cl)c(Cl)c2)c(Cl)c1C)C(=O)OC` [Compound 24], the “Herbicidal activity Chenopodium album” value is 4 (herbicidal effect of not less than 70% by weight and less than 90% by weight) with Chenopodium album [1]; 4 (herbicidal effect of not less than 70% by weight and less than 90% by weight) in the data set on Chenopodium album [7]. In addition, the “Herbicidal activity Digitaria adscendens” value is 4 (herbicidal effect of not less than 70% by weight and less than 90% by weight) with Digitaria adscendens [2]; 4 (herbicidal effect of not less than 70% by weight and less than 90% by weight) with Digitaria adscendens [8]. Besides, the “Herbicidal activity Setaria viridis” value in the data set with Setaria viridis [3] is 4 (herbicidal effect of not less than 70% by weight and less than 90% by weight); in the data set on Setaria viridis [9], 4 (herbicidal effect of not less than 70% by weight and less than 90% by weight). The “Herbicidal activity Stellaria media” value is 4 (herbicidal effect of not less than 70% by weight and less than 90% by weight) in the data set with Stellaria media [4]; 4 (herbicidal effect of not less than 70% by weight and less than 90% by weight) with Stellaria media [10]. Besides, the “Herbicidal activity Glycine max” value in the data set with soybean (Glycine max) [5] is 0 (herbicidal effect of not less than 0% by weight and less than 10% by weight); in the data set with soybean (Glycine max) [11], 0 (herbicidal effect of not less than 0% by weight and less than 10% by weight). Also, the “Herbicidal activity Triticum aestivum” value in [6] is 0 (herbicidal effect of not less than 0% by weight and less than 10% by weight); in [12], 0 (herbicidal effect of not less than 0% by weight and less than 10% by weight). Besides, in the data set on Echinochloa spp., the “Herbicidal activity Echinochloa spp.” value is 4 (herbicidal effect of not less than 70% by weight and less than 90% by weight). Moreover, the “Herbicidal activity Ammannia multiflora” value in the data set with Ammannia multiflora is 3 (herbicidal effect of not less than 50% by weight and less than 70% by weight). For the same compound, in the data set on Monochoria vaginalis, the “Herbicidal activity Monochoria vaginalis” value is 3 (herbicidal effect of not less than 50% by weight and less than 70% by weight). Further, the “Herbicidal activity Scirpus juncoides” value in the data set on Scirpus juncoides was 3 (herbicidal effect of not less than 50% by weight and less than 70% by weight). Also, the “Herbicidal activity Oryza sativa” value in data set [13] was 0 (herbicidal effect of not less than 0% by weight and less than 10% by weight).
